Laboratory results as given in patent publication US20240383955A1, “MODIFIED ANTIMICROBIAL PEPTIDES” (priority 2021, published 2024).
≈ marks a conversion by molar mass, not a printed value. Bridge positions count the residues as written; N and C are the ends. Square brackets hold non-standard residues; d marks the D form. Ends that are not written are not given here. Peptide text beside a SMILES is read from it. Dab = NCC[C@H](N)C(=O)O

Tests used:
B. cinerea [1] = experiment: Semi-in planta drop inoculation assay on detached leaves of N. benthamiana, gray mold symptoms; format: in vivo, B. cinerea on N. benthamiana; settings: 48 h; for effectiveness in reducing gray mold disease symptoms: peptide tested at 1.5 μM, 3 μM and 6 μM
Botrytis cinerea = settings: Table 18
B. cinerea [2] = experiment: In vitro antifungal activity (MIC) in SFM culture media, with or without added salts; settings: SFM + 2 mM CaCl2; Table 10

Compound	gray mold symptoms (B. cinerea [1]; peptide at 3 μM and 6 μM)	MIC (SFM + 2 mM CaCl2) (Botrytis cinerea) [µM]	MIC (SFM + 100 mM KCl) (Botrytis cinerea) [µM]	MIC (SFM + 100 mM NaCl) (Botrytis cinerea) [µM]	MIC SFM (Botrytis cinerea) [µM]	other results
GACLKNRHSKHYGWFWYYRHCY-NH2 (disulfide 3-21 (inferred)) [GMAOe1C_V2]	completely abrogated gray mold symptoms	–	–	–	–	–
CC(C)C[C@@H]1NC(=O)[C@@H](NC(=O)[C@H](C)NC(=O)CN)CSSC[C@@H](C(=O)N[C@@H](Cc2ccc(O)cc2)C(N)=O)NC(=O)[C@H](Cc2c[nH]cn2)NC(=O)[C@H](CCCNC(=N)N)NC(=O)[C@H](Cc2ccc(O)cc2)NC(=O)[C@H](Cc2ccc(O)cc2)NC(=O)[C@H](Cc2c[nH]c3ccccc23)NC(=O)[C@H](Cc2ccccc2)NC(=O)[C@H](Cc2c[nH]c3ccccc23)NC(=O)CNC(=O)[C@H](Cc2ccc(O)cc2)NC(=O)[C@H](Cc2c[nH]cn2)NC(=O)[C@H](CCCCN)NC(=O)[C@H](CO)NC(=O)[C@H](Cc2c[nH]cn2)NC(=O)[C@H](CCCNC(=N)N)NC(=O)[C@H](CC(N)=O)NC(=O)[C@H](CCCCN)NC1=O [GMAOe1C_V3] (H-GACLKNRHSKHYGWFWYYRHCY-NH2; disulfide 3-21)	completely abrogated gray mold symptoms	3 to 6	6 to 12	2 to 3	1.5 (≈ 4.31 µg/mL)	reducing the symptoms of gray mold, comparison of peptides (B. cinerea [1]; peptide at 1.5 μM): more effective than GMAOe1C_V4 or GMAOe1C_WT
C[C@H](NC(=O)CN)C(=O)N[C@H]1CSSC[C@@H](C(N)=O)NC(=O)[C@H](CCCCN)NC(=O)[C@H](CCCCN)NC(=O)[C@H](Cc2ccc(O)cc2)NC(=O)[C@H](Cc2ccccc2)NC(=O)[C@H](Cc2ccccc2)NC(=O)[C@H](Cc2ccccc2)NC(=O)[C@H](C)NC(=O)[C@H](Cc2ccccc2)NC(=O)CNC(=O)[C@H](Cc2ccccc2)NC(=O)CNC(=O)[C@H](CCC(N)=O)NC(=O)[C@H](CCCNC(=N)N)NC(=O)[C@H](Cc2c[nH]cn2)NC1=O [GMA5CA_V4] (H-GACHRQGFGFAFFFYKKC-NH2; disulfide 3-18)	–	>12	>12	>12	3 (≈ 6.33 µg/mL)	–
CC[C@H](C)[C@@H]1NC(=O)[C@H](CCCNC(=N)N)NC(=O)[C@@H](NC(=O)[C@H](CCCNC(=N)N)NC(=O)CNC(=O)[C@@H](N)CO)CSSC[C@@H](C(N)=O)NC(=O)[C@H](CC(N)=O)NC(=O)[C@H](CCCCN)NC(=O)[C@H]([C@@H](C)O)NC(=O)[C@H](Cc2c[nH]c3ccccc23)NC(=O)[C@H](Cc2ccccc2)NC(=O)[C@H](Cc2c[nH]c3ccccc23)NC(=O)[C@H](CCCNC(=N)N)NC(=O)[C@H](Cc2ccccc2)NC(=O)[C@H](CC(C)C)NC1=O [GMA1C_V2] (H-SGRCRILFRWFWTKNC-NH2; disulfide 4-16)	completely abrogated gray mold symptoms	3	>12	3	1.5 to 3	reducing the symptoms of gray mold, comparison of peptides (B. cinerea [1]; peptide at 1.5 μM): more effective than GMA1C_V1
CC(C)C[C@H](NC(=O)[C@H](CS)NC(=O)[C@H](C)NC(=O)CN)C(=O)N[C@@H](CCCCN)C(=O)N[C@@H](CC(N)=O)C(=O)N[C@@H](CCCNC(=N)N)C(=O)N[C@@H](Cc1c[nH]cn1)C(=O)N[C@@H](CO)C(=O)N[C@@H](CCCCN)C(=O)N[C@@H](Cc1c[nH]cn1)C(=O)N[C@@H](Cc1ccc(O)cc1)C(=O)NCC(=O)N[C@@H](CS)C(=O)N[C@@H](Cc1ccc(O)cc1)C(=O)N[C@@H](CS)C(=O)N[C@@H](Cc1ccc(O)cc1)C(=O)N[C@@H](Cc1ccc(O)cc1)C(=O)N[C@@H](CCCNC(=N)N)C(=O)N[C@@H](Cc1c[nH]cn1)C(=O)N[C@@H](CS)C(=O)N[C@@H](Cc1ccc(O)cc1)C(N)=O [GMAOe1C_WT, reference compound] (H-GACLKNRHSKHYGCYCYYRHCY-NH2; N-terminus assumed)	–	–	–	–	–	effectiveness in reducing gray mold disease symptoms (B. cinerea [1]): only effective at 6 μM
C[C@@H](O)[C@H](NC(=O)[C@H](CS)NC(=O)[C@H](Cc1ccccc1)NC(=O)[C@H](CS)NC(=O)[C@H](CCCNC(=N)N)NC(=O)[C@H](CCCNC(=N)N)NC(=O)[C@H](CCCNC(=N)N)NC(=O)[C@H](Cc1ccccc1)NC(=O)CNC(=O)[C@H](CCCNC(=N)N)NC(=O)[C@H](CS)NC(=O)[C@H](CCCNC(=N)N)NC(=O)CN)C(=O)N[C@H](C(=O)N[C@@H](Cc1c[nH]cn1)C(=O)N[C@@H](CS)C(=O)O)[C@@H](C)O [GMA4AC] (H-GRCRGFRRRCFCTTHC-OH; N-terminus and C-terminus assumed)	–	–	–	–	–	MIC Fusarium graminearum (F. graminearum): 6 µM (≈ 11.8 µg/mL)
CC(C)C[C@@H]1NC(=O)[C@@H](NC(=O)[C@H](C)NC(=O)CN)CSSC[C@@H](C(=O)N[C@@H](Cc2ccc(O)cc2)C(N)=O)NC(=O)[C@H](Cc2c[nH]cn2)NC(=O)[C@H](CCCNC(=N)N)NC(=O)[C@H](Cc2ccc(O)cc2)NC(=O)[C@H](Cc2ccc(O)cc2)NC(=O)[C@H](Cc2c[nH]c3ccccc23)NC(=O)[C@H](Cc2ccccc2)NC(=O)[C@H](Cc2ccccc2)NC(=O)CNC(=O)[C@H](Cc2ccc(O)cc2)NC(=O)[C@H](Cc2c[nH]cn2)NC(=O)[C@H](CCCCN)NC(=O)[C@H](CO)NC(=O)[C@H](Cc2c[nH]cn2)NC(=O)[C@H](CCCNC(=N)N)NC(=O)[C@H](CC(N)=O)NC(=O)[C@H](CCCCN)NC1=O [GMAOe1C_V4] (H-GACLKNRHSKHYGFFWYYRHCY-NH2; disulfide 3-21)	completely abrogated gray mold symptoms	6 to 12	6 to 12	6	1.5 (≈ 4.25 µg/mL)	–
CC[C@H](C)[C@@H]1NC(=O)[C@H](CCCNC(=N)N)NC(=O)[C@H]([C@@H](C)O)NC(=O)[C@H](Cc2ccccc2)NC(=O)[C@H](Cc2c[nH]c3ccccc23)NC(=O)[C@H](Cc2ccccc2)NC(=O)[C@H](CCCNC(=N)N)NC(=O)[C@H](CCCNC(=N)N)NC(=O)[C@H](CC(C)C)NC(=O)[C@H](Cc2ccccc2)NC(=O)CNC(=O)[C@H](CCCCN)NC(=O)[C@@H](NC(=O)[C@H](CCCNC(=N)N)NC(=O)CNC(=O)CN)CSSC[C@@H](C(N)=O)NC1=O [GMA4C_V9] (H-GGRCKGFLRRFWFTRIC-NH2; disulfide 4-17)	–	12	6 to 12	3	3 (≈ 6.3 µg/mL)	effectiveness in reducing gray mold disease symptoms (B. cinerea [1]): effective in reducing gray mold disease symptoms
CC[C@H](C)[C@@H]1NC(=O)[C@H](CCCNC(=N)N)NC(=O)[C@H]([C@@H](C)O)NC(=O)[C@H](Cc2c[nH]c3ccccc23)NC(=O)[C@H](Cc2ccc(O)cc2)NC(=O)[C@H](Cc2c[nH]c3ccccc23)NC(=O)[C@H](CCCNC(=N)N)NC(=O)[C@H](CCCNC(=N)N)NC(=O)[C@H](CCCNC(=N)N)NC(=O)[C@H](Cc2ccccc2)NC(=O)CNC(=O)[C@H](CCCCN)NC(=O)[C@@H](NC(=O)[C@H](CCCNC(=N)N)NC(=O)CNC(=O)CN)CSSC[C@@H](C(N)=O)NC1=O [GMA4C_V10] (H-GGRCKGFRRRWYWTRIC-NH2; disulfide 4-17; N-terminus assumed)	–	3	3 to 6	3	3 (≈ 6.6 µg/mL)	reducing the symptoms of gray mold, comparison of peptides (B. cinerea [1]; peptide at 1.5 μM and 3 μM): more effective in reducing the symptoms of gray mold than GMA4C_V9; gray mold symptoms (B. cinerea [1]; peptide at 6 μM): completely abrogates gray mold symptoms; effectiveness in reducing gray mold disease symptoms (B. cinerea [1]): effective in reducing gray mold disease symptoms
CC[C@H](C)[C@H](NC(=O)[C@H](CCCNC(=N)N)NC(=O)[C@H](CS)NC(=O)[C@H](CCCNC(=N)N)NC(=O)CNC(=O)[C@@H](N)CO)C(=O)N[C@@H](CC(C)C)C(=O)N[C@@H](Cc1ccccc1)C(=O)N[C@@H](CCCNC(=N)N)C(=O)N[C@@H](CS)C(=O)N[C@@H](Cc1ccccc1)C(=O)N[C@@H](CS)C(=O)N[C@H](C(=O)N[C@@H](CCCCN)C(=O)N[C@@H](CC(N)=O)C(=O)N[C@@H](CS)C(N)=O)[C@@H](C)O [GMA1C_V1] (H-SGRCRILFRCFCTKNC-NH2; N-terminus assumed)	–	–	–	–	–	gray mold symptoms (B. cinerea [1]): failed to reduce disease symptoms
C[C@H](NC(=O)CN)C(=O)N[C@H]1CSSC[C@@H](C(N)=O)NC(=O)[C@H](CCCCN)NC(=O)[C@H](CCCCN)NC(=O)[C@H](Cc2ccc(O)cc2)NC(=O)[C@H](Cc2c[nH]c3ccccc23)NC(=O)[C@H](Cc2ccccc2)NC(=O)[C@H](Cc2c[nH]c3ccccc23)NC(=O)[C@H](C)NC(=O)[C@H](Cc2ccccc2)NC(=O)CNC(=O)[C@H](Cc2ccccc2)NC(=O)CNC(=O)[C@H](CCC(N)=O)NC(=O)[C@H](CCCNC(=N)N)NC(=O)[C@H](Cc2c[nH]cn2)NC1=O [GMA5CA_V3] (H-GACHRQGFGFAWFWYKKC-NH2; disulfide 3-18)	–	>12	>12	>12	3 (≈ 6.57 µg/mL)	–
NCC[C@H](NC(=O)CNC(=O)[C@@H](N)Cc1ccccc1)C(=O)N[C@@H](CS)C(=O)N[C@@H](CCN)C(=O)NCC(=O)N[C@@H](Cc1ccccc1)C(=O)N[C@@H](CCN)C(=O)N[C@@H](CCN)C(=O)N[C@@H](CCN)C(=O)N[C@@H](CS)C(=O)N[C@@H](Cc1ccccc1)C(=O)N[C@@H](CS)C(=O)N[C@@H](Cc1c[nH]c2ccccc12)C(=O)N[C@@H](CCN)C(=O)N[C@@H](Cc1c[nH]c2ccccc12)C(=O)N[C@@H](CS)C(=O)O [GMA4C_V5, FG(Dab)C(Dab)GF(Dab)(Dab)(Dab)CFCW(Dab)WC] (H-FG[Dab]C[Dab]GF[Dab][Dab][Dab]CFCW[Dab]WC-OH; N-terminus assumed)	–	–	–	–	–	SFM + 2 mM CaCl2 MIC (B. cinerea [2]): >6 (very μM
CC[C@H](C)[C@@H]1NC(=O)[C@H](CCCNC(=N)N)NC(=O)[C@@H](NC(=O)[C@H](CCCNC(=N)N)NC(=O)CNC(=O)[C@@H](N)CO)CSSC[C@@H](C(N)=O)NC(=O)[C@H](CC(N)=O)NC(=O)[C@H](CCCCN)NC(=O)[C@H]([C@@H](C)O)NC(=O)[C@H](Cc2ccccc2)NC(=O)[C@H](Cc2ccc(O)cc2)NC(=O)[C@H](Cc2c[nH]c3ccccc23)NC(=O)[C@H](CCCNC(=N)N)NC(=O)[C@H](Cc2ccccc2)NC(=O)[C@H](CC(C)C)NC1=O [GMA1C_V3] (H-SGRCRILFRWYFTKNC-NH2; disulfide 4-16)	–	6	>12	3	1.5 (≈ 3.07 µg/mL)	–
